Consider 2 compounds from publication PMC6152678, “In Vitro Comparative Study of the Inhibitory Effects of Mangiferin and Its Aglycone Norathyriol towards UDP-Glucuronosyl Transferase (UGT) Isoforms” (Molecules : A Journal of Synthetic Chemistry and Natural …, 2017).

One data set concerns the target T1, UGT2B15 (Homo sapiens, UniProt P54855).
T1 construct: purchased BD Gentest Corp. (Woburn, MA, USA); host or cells: baculovirus-infected insect cells
T1 sequence (P54855 24-530): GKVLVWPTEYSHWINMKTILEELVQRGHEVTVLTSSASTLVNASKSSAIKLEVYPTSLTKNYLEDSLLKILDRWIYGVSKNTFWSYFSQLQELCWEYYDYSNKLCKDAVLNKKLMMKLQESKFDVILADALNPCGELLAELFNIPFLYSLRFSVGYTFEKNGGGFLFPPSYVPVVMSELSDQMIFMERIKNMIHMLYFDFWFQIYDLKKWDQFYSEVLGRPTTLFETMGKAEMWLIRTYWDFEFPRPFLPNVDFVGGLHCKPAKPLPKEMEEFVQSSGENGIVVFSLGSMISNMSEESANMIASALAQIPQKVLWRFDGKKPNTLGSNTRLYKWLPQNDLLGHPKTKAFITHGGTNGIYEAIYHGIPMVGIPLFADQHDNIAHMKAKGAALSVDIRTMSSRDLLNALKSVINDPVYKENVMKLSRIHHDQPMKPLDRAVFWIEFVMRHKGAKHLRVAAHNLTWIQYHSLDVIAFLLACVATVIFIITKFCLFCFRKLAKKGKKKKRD
Put plainly: Inhibition of recombinant UGT-catalyzed 4-MU glucuronidation. The data set is classed as biochemical. Conditions: pH 7.4, probe 4-methylumbelliferone (4-MU), 250 μM, 100 μM compound, 4-MU probe substrate, negative = activation. On the procedure: (§1) Sigma-Aldrich (St Louis, MO, USA) provided the following constituents in the incubation mixture: 4-methylumbelliferone (4-MU), 4-methylumbelliferone-β-D-glucuronide (4-MUG), Tris-HCl, 7-hydroxycoumarin, and uridine-diphosphoglucuronic acid (UDPGA) (trisodium salt). All other compounds were of high-performance liquid chromatography (HPLC) grade or of the highest grade commercially available. For enzyme sources, recombinant UGT isoforms expressed in baculovirus-infected insect cells were purchased from BD Gentest Corp. (Woburn, MA, USA), including UGT1A1, 1A3, 1A6, 1A7, 1A8, 1A9, 1A10, 2B4, 2B7, 2B15, and 2B17.
(§2) 4-MU, a nonspecific probe substrate for all the UGT isoforms, was employed to investigate the inhibition of MEF and NIR towards the activity of UGT isoforms. The incubation and analytical methods have been previously described. […] MEF and NIR were dissolved in the DMSO to make a stock solution of 20 mM, and various concentrations of working solutions were prepared through dilution with DMSO. 4-MU was used as a non-selective substrate of UGTs. There was a 5-min pre-incubation step at 37 °C before the reaction was initiated by the addition of UDPGA. 4-MU and inhibitors were previously dissolved in DMSO, and the total concentration of DMSO was 1%. The reactions were continued at 37 °C for 120 min for UGT1A1, UGT1A3, UGT1A10, UGT2B4, UGT2B7, UGT2B15 and UGT2B17, 30 min for UGT1A6, UGT1A7, UGT1A8, and UGT1A9, respectively. Reactions were terminated by the addition of 100 μL acetonitrile with 7-hydroxycoumarin (100 μM) as internal standard. The incubation mixtures were then centrifuged at 12,000 r/min for 10 min. 2 μL supernatant was injected into the UPLC system for analysis. An ACQUITY UPLC System (Waters, Milford, MA, USA) equipped with UV detector was used to analyze the samples, and the separation of all the compounds were carried out using a ACQUITY UPLC® BEH C18 (2.1 × 100 mm, 1.7 μm Waters) at a flow rate of 0.2 mL/min and UV detector at 316 nm. The mobile phase was consisted of ultrapure water containing 0.5% formic acid (A) and acetonitrile (B). The following gradient condition was used: 0–3.5 min, 10–65% B; 3.5–4.0 min, 65% B; 4.0–9.0 min, 10% B. To calculate the standard curve 0.1–100 μM of 4-MUG was used through drawing the peak area ration of 4-MUG/internal standard towards the concentration range of 4-MUG. The curve was linear over this concentration range, with an r^2 value > 0.99.
(§3) The inhibition type and Kinetics were determined for the inhibition of NTR towards UGT1A3, UGT1A7 and UGT1A9. The glucuronidation velocity of 4-MU was determined at multiple concentrations of 4-MU and NTR. Dixon and Lineweaver–Burk plots were employed to determine the inhibition type, and the second plot of the slopes from the Lineweaver–Burk plot versus the compound concentrations was utilized to calculate the Ki value. The determination of IC50 was calculated using Probit analysis in SPSS11.5 (SPSS, Chicago, IL, USA). The Student’s t-test was adopted at a significance level of p < 0.05 to determine statistically significant differences among experimental groups.

The target in a further data set is T2, UGT2B4 (Homo sapiens, UniProt P06133).
T2 construct: purchased BD Gentest Corp. (Woburn, MA, USA); host or cells: baculovirus-infected insect cells
T2 sequence (P06133 24-528): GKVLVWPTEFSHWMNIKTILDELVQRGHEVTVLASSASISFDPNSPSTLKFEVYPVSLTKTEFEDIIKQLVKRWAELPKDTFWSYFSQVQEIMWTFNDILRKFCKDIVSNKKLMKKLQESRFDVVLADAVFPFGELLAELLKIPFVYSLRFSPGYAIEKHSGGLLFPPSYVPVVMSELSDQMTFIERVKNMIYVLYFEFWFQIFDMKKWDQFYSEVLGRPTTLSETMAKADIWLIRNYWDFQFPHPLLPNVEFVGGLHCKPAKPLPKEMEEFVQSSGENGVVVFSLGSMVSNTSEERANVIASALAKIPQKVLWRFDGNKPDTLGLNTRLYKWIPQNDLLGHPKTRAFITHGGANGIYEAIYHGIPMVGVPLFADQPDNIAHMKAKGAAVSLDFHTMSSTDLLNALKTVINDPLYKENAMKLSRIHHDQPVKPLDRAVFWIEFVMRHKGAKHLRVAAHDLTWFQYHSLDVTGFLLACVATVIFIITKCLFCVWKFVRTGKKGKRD
Described as above. The data set is classed as biochemical. Conditions: pH 7.4, probe 4-methylumbelliferone (4-MU), 1000 μM, 100 μM compound, 4-MU probe substrate, negative = activation. On the procedure:
as §1, §2, §3

One may read the inhibition as the relative decrease from the control value, in per cent. As for `O=c1c2cc(O)c(O)cc2oc2cc(O)cc(O)c12` [NTR, 1,3,6,7-tetrahydroxyxanthone], the inhibition at 120 min, 100 µM was 46.3% on UGT2B15 and -5.5% at UGT2B4.

With `O=c1c2cc(O)c(O)cc2oc2cc(O)c([C@@H]3O[C@H](CO)[C@@H](O)[C@H](O)[C@H]3O)c(O)c12` [MGF, 1,3,6,7-tetrahydroxyxanthone-C-2-β-D-glucoside], the inhibition at 120 min, 100 µM is 8.9% at UGT2B15 and -61.9% on UGT2B4.
